Data from the supplement of paper PMC10307832.

Assays:
Assay in all cases: relative viability (nuclei count vs DMSO), 5 days (fraction); higher = more cells survive
[1] = compound: CC1=CN=C(N=C1C2=CNC(=C2)C(=O)N[C@H](CO)C3=CC(=CC=C3)Cl)NC4=C(C=C(C=C4)F)Cl [VX-11e] + O=C(CCCCCCC(=O)Nc1ccccc1)NO [Vorinostat] (partner 1 µM)
How it was run: (§1)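 Five library-drug doses in √10 steps were combined with a fixed anchor-drug dose, or a single drug was given alone, by pin tool to lung cancer cell lines in 1536-well plates the day after seeding. Nuclei were stained and counted after 5 days. Relative viability is the nuclei count in treated wells over that in vehicle wells, taken as the median of duplicate plates.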

[2] = compound: CC1=CN=C(N=C1C2=CNC(=C2)C(=O)N[C@H](CO)C3=CC(=CC=C3)Cl)NC4=C(C=C(C=C4)F)Cl [VX-11e] + Cc1nc(Nc2ncc(C(=O)Nc3c(C)cccc3Cl)s2)cc(N2CCN(CCO)CC2)n1 [Dasatinib] (partner 0.075 µM)
How it was run: as §1

[3] = compound: CC1=CN=C(N=C1C2=CNC(=C2)C(=O)N[C@H](CO)C3=CC(=CC=C3)Cl)NC4=C(C=C(C=C4)F)Cl [VX-11e] + CS(=O)(=O)N1CCN(Cc2cc3nc(-c4cccc5[nH]ncc45)nc(N4CCOCC4)c3s2)CC1 [Pictilisib] (partner 1 µM)
How it was run: as §1

[4] = compound: CC1=CN=C(N=C1C2=CNC(=C2)C(=O)N[C@H](CO)C3=CC(=CC=C3)Cl)NC4=C(C=C(C=C4)F)Cl [VX-11e] + C[C@@H](Oc1cc(-c2cnn(C3CCNCC3)c2)cnc1N)c1c(Cl)ccc(F)c1Cl [Crizotinib] (partner 1 µM)
How it was run: as §1

Cell Line	relative viability ([1]; first compound 0.04 µM)	relative viability ([1]; first compound 0.1265 µM)	relative viability ([1]; first compound 0.4 µM)	relative viability ([1]; first compound 1.265 µM)	relative viability ([1]; first compound 4 µM)	relative viability ([2]; first compound 0.04 µM)	relative viability ([2]; first compound 0.1265 µM)	relative viability ([2]; first compound 0.4 µM)	relative viability ([2]; first compound 1.265 µM)	relative viability ([2]; first compound 4 µM)	relative viability ([3]; first compound 0.04 µM)	relative viability ([3]; first compound 0.1265 µM)	relative viability ([3]; first compound 0.4 µM)	relative viability ([3]; first compound 1.265 µM)	relative viability ([3]; first compound 4 µM)	relative viability ([4]; first compound 0.04 µM)	relative viability ([4]; first compound 0.1265 µM)	relative viability ([4]; first compound 0.4 µM)	relative viability ([4]; first compound 1.265 µM)	relative viability ([4]; first compound 4 µM)
LU99A	0.468	0.469	0.487	0.274	0.226	0.505	0.562	0.261	0.252	0.199	0.285	0.283	0.385	0.278	0.155	0.527	0.496	0.517	0.475	0.243
LXF-289	0.851	0.726		0.668	0.543	0.29	0.199	0.249	0.336	0.172	0.785	0.754	0.66	0.686	0.333	0.902	0.788	0.87	0.706	0.543
NCI-H23	0.562	0.581	0.174	0.148	0.182	0.552	0.711		0.225	0.221	0.35	0.437	0.176	0.31	0.19	0.422	0.504	0.416	0.347	0.32
NCI-H522	0.994	0.939	0.736	0.713	0.751	0.647	0.849	0.719	0.72	0.605										
NCI-H1299											0.851	0.821	0.681	0.262	0.119	0.994	0.879	0.956	0.84	0.47
NCI-H1395	0.573	0.683		0.661	0.479	0.448	0.383	0.346	0.398	0.376	0.682	0.551	0.501	0.59	0.435					
NCI-H1563						0.417	0.47	0.506	0.411	0.449	0.662	0.538	0.559	0.656	0.625	0.861	0.799	0.969	0.91	0.642
NCI-H1648		0.317	0.639	0.31	0.291															
NCI-H1703												0.257	0.234	0.268	0.258	0.985	0.727		0.589	0.582
NCI-H1792						0.894	0.679	0.572	0.729	0.326	0.299	0.2	0.319	0.27	0.0521	0.956	0.954	0.915	0.982	0.52
NCI-H1793		0.618		0.569	0.257	0.197	0.292		0.326	0.287		0.329		0.273	0.232					
NCI-H2342		0.79	0.862	0.843	0.73	0.31	0.282	0.285	0.307	0.348										
SW 900	0.348	0.507		0.276	0.323	0.59	0.588	0.137	0.585	0.385										
